Results taken from PubChem BioAssay (NCI).
Several values for one entry are separate records, joined by “and”; a condition that tells them apart may be missing. Identical values can stand only once.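 All cell lines were grown in 96-well plates and treated with compound for 48 hours. Here, GI50 denotes the concentration required for 50% inhibition of growth. Definition used: TGI = concentration required for complete inhibition of growth.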

Tests used:
Test in all cases: DTP human tumour cell line panel, 48 h
OVCAR-8 ovarian = test system: OVCAR-8 ovarian
U251 CNS = test system: U251 CNS
SF-539 CNS = test system: SF-539 CNS
CCRF-CEM leukemia = test system: CCRF-CEM leukemia
PC-3 prostate = test system: PC-3 prostate
TK-10 renal = test system: TK-10 renal
UO-31 renal = test system: UO-31 renal
COLO 205 colon = test system: COLO 205 colon
SN12C renal = test system: SN12C renal
NCI-H226 lung = test system: NCI-H226 lung

Compound	GI50 (OVCAR-8 ovarian)	TGI (OVCAR-8 ovarian)	GI50 (U251 CNS)	TGI (U251 CNS)	GI50 (SF-539 CNS)	TGI (SF-539 CNS)	GI50 (CCRF-CEM leukemia)	TGI (CCRF-CEM leukemia)	GI50 (PC-3 prostate)	TGI (PC-3 prostate)	GI50 (TK-10 renal)	TGI (TK-10 renal)	GI50 (UO-31 renal)	TGI (UO-31 renal)	GI50 (COLO 205 colon)	TGI (COLO 205 colon)	GI50 (SN12C renal)	TGI (SN12C renal)	GI50 (NCI-H226 lung)	TGI (NCI-H226 lung)
O=C(O)c1cn(C2CC2)c2cc(N3CCN(C(=O)Nc4nc(-c5ccccc5)cs4)CC3)c(F)cc2c1=O	1.45 µM	49.2 µM	0.474 µM	14.1 µM	0.634 µM	> 100 µM	0.752 µM	> 100 µM	1.88 µM	> 100 µM	3.93 µM	35.1 µM	0.876 µM	> 100 µM	2.84 µM	9.63 µM	0.774 µM	> 100 µM	2.96 µM	57.5 µM
S=c1[nH]nc(Cc2ccccc2)c(=S)[nH]1		> 100 µM		> 100 µM		> 100 µM		> 100 µM		88.2 µM		> 94.1 µM		> 100 µM		> 100 µM		> 100 µM		> 100 µM
CCOc1cc(Br)c(C(C)NC(=O)c2cccc(OC)c2)cc1OCC (configuration not stated)	25.6 µM	> 100 µM	11.4 µM	> 100 µM	7.2 µM	42.8 µM	13.6 µM	> 100 µM	12.6 µM	> 100 µM	28.2 µM	> 100 µM	12.1 µM	> 100 µM	8.28 µM	37.9 µM	25.2 µM	> 100 µM	21.4 µM	> 100 µM
O=C1C2=C(c3ccccc31)C(c1ccccc1)N1C(=O)CSC1=N2 (configuration not stated)		> 100 µM		> 100 µM		97.1 µM		> 100 µM		> 100 µM		> 100 µM		> 100 µM		> 100 µM		> 94.9 µM		> 100 µM
Cc1cc(S(=O)(=O)/N=C/N(C)C)c(SC(=O)c2ccc(Cl)cc2)cc1Cl	40.9 µM	> 100 µM	27 µM	71.1 µM	26.7 µM	52.1 µM	32.4 µM	> 100 µM	27.6 µM	90.8 µM	28.2 µM	80.7 µM	> 100 µM	> 100 µM	55.9 µM	> 100 µM	26.8 µM	79.8 µM	27.8 µM	87.2 µM
COc1ccc2c(c1)CC[C@@H]1[C@@H]2CC[C@]2(C)[C@@H](NC(=O)/C=C/c3ccc(O)c(O)c3)CC[C@@H]12	4.2 µM	16.7 µM	2.88 µM	11.2 µM	4.1 µM	15.6 µM	0.731 µM	6.67 µM	2.17 µM	12.5 µM	1.47 µM	6.6 µM	1.26 µM	15 µM	14 µM	46.8 µM	2.61 µM	9.3 µM	2.34 µM	6.45 µM
Cc1cc(Nc2nc(-c3cccnc3)nc3ccccc23)n[nH]1	9.55 µM	> 100 µM	1.25 µM	> 53.1 µM	1.82 µM	7.99 µM	4.83 µM	> 100 µM	1.85 µM	> 100 µM	0.607 µM	99.1 µM	0.443 µM	> 100 µM	1.07 µM	3.74 µM	3.21 µM	> 100 µM	1.39 µM	> 24.2 µM
CC(C)(C)c1ccc(OC(=O)Nc2ccc(O)c(C(=O)O)c2)cc1		> 100 µM		> 100 µM		> 100 µM		> 100 µM		> 100 µM		> 100 µM				> 100 µM		> 100 µM		> 100 µM
COc1ccc(/C=c2\sc3n(c2=O)C2C(NN=3)N(C)C(=O)N2C)cc1 (configuration not stated)	1.75 µM	> 100 µM	1.44 µM	> 100 µM	0.78 µM	6.04 µM	0.426 µM	> 100 µM	0.444 µM	> 100 µM	> 100 µM	> 100 µM	1.86 µM	> 100 µM	1.09 µM	> 100 µM	1.63 µM	> 100 µM	1.18 µM	> 100 µM
O=[N+]([O-])c1ccc(Oc2nc(Nc3ccc(O[C@H]4CO[C@H]5[C@@H]4OC[C@@H]5O)c(Cl)c3)ncc2F)c(Cl)c1	1.21 µM	> 100 µM	1.66 µM	6.51 µM	1.55 µM	3.86 µM	0.718 µM	7.2 µM	1.66 µM	7.04 µM	1.08 µM	4.07 µM	1.6 µM	4.81 µM	1.42 µM	3.78 µM	1.34 µM	6.78 µM	0.73 µM	2.5 µM
S=C(Nc1ccc(N=Nc2ccccc2)cc1)SCc1ccccc1		22.5 µM		29.7 µM		34.5 µM		36.1 µM		30.6 µM		25.5 µM		34.9 µM		42.1 µM		29.2 µM		39 µM
CC1=C(/C=C/C(C)=C/C=C/C(C)=C/C=N/NC(=S)NC(=S)N/N=C/C=C(C)/C=C/C=C(C)/C=C/C2=C(C)CCCC2(C)C)C(C)(C)CCC1	3.71 µM and 2.06 µM	12.3 µM and 7.32 µM	2.17 µM and 1.58 µM	7.18 µM and 4.62 µM	1.13 µM and 0.994 µM	2.85 µM and 2.03 µM	1.71 µM and 0.686 µM	25.8 µM and 4.45 µM	3.52 µM and 1.75 µM	12.7 µM and 7.23 µM	8.6 µM and 2.2 µM	16.1 µM and 7.54 µM	1.84 µM and 1.52 µM	8.94 µM and 7.32 µM	1.46 µM and 0.903 µM	5.14 µM and 1.71 µM	1.56 µM and 1.07 µM	6.34 µM and 3.32 µM	1.06 µM and 1.05 µM	2.68 µM and 2.47 µM
COC(=O)C1OC2(CCCC3CC32)O[C@H]1C(=O)OC (some centres not stated)		> 100 µM		> 100 µM		> 100 µM		> 100 µM		> 100 µM		> 100 µM		> 100 µM		> 100 µM		> 100 µM		> 100 µM
CC(=O)c1c(CN(C)c2ccccc2)n([O-])c2ccccc2[n+]1=O	43.1 µM	> 100 µM	29.7 µM	> 100 µM	28.7 µM	86.6 µM	23 µM	96.7 µM	11.7 µM	44.3 µM	45.8 µM	> 100 µM	32 µM	> 100 µM	16.2 µM	32.9 µM	24.9 µM	87.4 µM	20.2 µM	67.5 µM
FC(F)(F)c1ccc(-c2cnc(-n3cc(COCCN4CCCCC4)nn3)nc2NC2CCCCCC2)cc1	4.12 µM	8.74 µM	3.5 µM	6.87 µM	3.89 µM	7.42 µM	4.23 µM	10.7 µM	2.93 µM	6.18 µM	4.14 µM	7.81 µM	2.63 µM	5.97 µM	3.86 µM	8.57 µM	3.98 µM	7.56 µM	3.54 µM	7.83 µM
Clc1ccc(-c2nnc(-c3cccc4ccccc34)o2)cc1Cl		> 100 µM		> 100 µM		> 100 µM		> 100 µM		> 100 µM		> 100 µM		> 100 µM		> 100 µM		> 100 µM		> 100 µM
CN(COC(=O)c1ccccc1)c1nc(N(C)COC(=O)c2ccccc2)nc(N(C)COC(=O)c2ccccc2)n1		> 100 µM		> 83.7 µM		38.9 µM		> 100 µM		> 100 µM		59.2 µM		> 100 µM		> 100 µM		> 100 µM		> 100 µM
CCC(c1ccc(OC)cc1)C(CC)c1ccc(O)c(CN2CCN(C)CC2)c1 (configuration not stated)	6.35 µM	21.8 µM	2.73 µM	12.2 µM	2.66 µM	7.98 µM	5.37 µM	20.4 µM	6.73 µM	21.2 µM	4.48 µM	15.6 µM	1.83 µM	7.32 µM	1.73 µM	3.42 µM	5.7 µM	20.9 µM	12.4 µM	30.8 µM
O=C(CN1CCN(c2cc3c(cc2F)c(=O)c(C(=O)O)cn3C2CC2)CC1)Nc1nc(-c2ccc(Cl)cc2)cs1	3.26 µM	> 100 µM	3.74 µM	> 100 µM	3.93 µM	> 100 µM	4.39 µM	> 100 µM	3.36 µM	29.9 µM	4.28 µM	> 100 µM	2.96 µM	> 100 µM	4.82 µM	> 100 µM	3.69 µM	> 100 µM	5 µM	> 100 µM
NC1=NC(c2ccc(Cl)cc2)N(c2ccc(S(N)(=O)=O)cc2)C(N)=N1 (configuration not stated)		> 100 µM		> 100 µM		> 100 µM		> 100 µM		> 100 µM		> 100 µM		> 100 µM		> 100 µM		> 100 µM		> 100 µM
COc1cccc(-c2ccc3c(c2)C2CCN(Cc4ccccc4)C3C2)c1 (configuration not stated)	11.2 µM	32.5 µM	7.63 µM	22 µM	10.3 µM	23 µM	9.67 µM	56.1 µM	6.99 µM	65.4 µM			6.79 µM	21.6 µM	10 µM	27.8 µM	11.2 µM	30.3 µM	11.1 µM	30.4 µM
